{
  "source": "patent US5015659A",
  "about": "“Thienylacetic acid derivatives, process for the preparation thereof, the use thereof, and pharmaceuticals containing these and the preparation thereof” (Cassella Aktiengesellschaft, priority 1989, dated 1991)",
  "key": {"[1]": {"test_system": "Ischaemia-induced amnesia in the Mongolian gerbil", "test": "Ischaemia-induced amnesia, passive-avoidance learning after brief bilateral cerebral ischaemia", "format": "in vivo", "settings": "for Ischaemia-induced learning impairment, % reversal of learning impairment: immediately after the end of ischaemia; for ED50: Meriones unguiculatus, ip, i.p. immediately after the end of ischaemia (3-5 min), read-out: Dose which elicits a half-maximum (about 50%) antagonism of the learning impairment", "description": "Brief bilateral cerebral ischaemia (3-5 min) in the gerbil leads to a prolonged learning impairment in passive-avoidance learning. The learning impairment can be antagonized if the animals are treated intraperitoneally with the compounds of the general formula I immediately after the end of ischaemia. The table which follows indicates the dosages which elicit a half-maximum (about 50%) antagonism of the learning impairment. The compounds according to the invention show a pronounced superiority to the compounds of the state of the art."}, "[2]": {"test_system": "Scopolamine-induced amnesia in the mouse", "test": "Scopolamine-induced amnesia, passive-avoidance learning test", "format": "in vivo", "settings": "scopolamine 3 mg/kg i.p.; for Scopolamine amnesia, % reversal of amnesia: 30 mg/kg oral pretreatment", "description": "1) Scopolamine-induced amnesia in the mouse\nInjection of a scopolamine dose of 3 mg/kg i.p. leads to an amnesia in a passive-avoidance learning test."}, "[3]": {"test_system": "glycine receptor", "test": "Receptor-binding studies in vitro, rat cortex synaptosomes", "settings": "for Kd: read-out: Binding to glycine receptors in the brain, Kd"}},
  "note": "Structures can show the parent of a compound that is named as a salt.",
  "data": [
    {"smiles": "COc1ccc(C(=O)N2CCCC2=O)cc1", "note": "[Aniracetam, reference compound]", "values": [
      {"measurement": "Ischaemia-induced learning impairment, % reversal of learning impairment", "setting": "[1]; 30.00 mg/kg ip", "result": 45, "unit": "%"},
      {"measurement": "ED50", "setting": "[1]", "result": 30, "unit": "mg/kg"}
    ]},
    {"smiles": "NC(=O)CN1CCCC1=O", "note": "[Piracetam, reference compound]", "values": [
      {"measurement": "Scopolamine amnesia, % reversal of amnesia", "setting": "[2]", "result": 18, "unit": "%"},
      {"measurement": "antagonism of scopolamine-induced amnesia (in words)", "setting": "[2]; oral pretreatment", "result": "only marginal activity"},
      {"measurement": "Binding to glycine receptors in the brain (in words)", "setting": "[3]", "result": "No specific binding"}
    ]},
    {"smiles": "NC(C(=O)NCC(=O)O)c1cccs1", "note": "(stereo not shown) [Example 11, N-(2-Thienylaminoacetyl)glycine]", "values": [
      {"measurement": "Ischaemia-induced learning impairment, % reversal of learning impairment", "setting": "[1]; 1.00 mg/kg ip", "result": 54, "unit": "%"},
      {"measurement": "ED50", "setting": "[1]", "result": 1, "unit": "mg/kg"},
      {"measurement": "Kd", "setting": "[3]", "result": 1800, "unit": "nM"}
    ]},
    {"smiles": "NC(=O)CN1CC(O)CC1=O", "note": "(stereo not shown) [Oxiracetam, reference compound]", "values": [
      {"measurement": "Ischaemia-induced learning impairment, % reversal of learning impairment", "setting": "[1]; 100.00 mg/kg ip", "result": 46, "unit": "%"},
      {"measurement": "ED50", "setting": "[1]", "result": 100, "unit": "mg/kg"}
    ]},
    {"smiles": "Cl.NCC(=O)NC(C(=O)O)c1cccs1", "note": "(stereo not shown) [Example 9, 2-Thienyl-N-aminoacetylaminoacetic acid hydrochloride]", "values": [
      {"measurement": "Ischaemia-induced learning impairment, % reversal of learning impairment", "setting": "[1]; 0.10 mg/kg ip", "result": 54, "unit": "%"},
      {"measurement": "ED50", "setting": "[1]", "result": 0.1, "unit": "mg/kg"},
      {"measurement": "Kd", "setting": "[3]", "result": 1800, "unit": "nM"}
    ]},
    {"smiles": "NC(=O)CNC(C(=O)O)c1cccs1", "note": "(stereo not shown) [Example 5, 2-Thienyl-N-aminocarbonylmethylaminoacetic acid]", "values": [
      {"measurement": "Scopolamine amnesia, % reversal of amnesia", "setting": "[2]", "result": 56, "unit": "%"},
      {"measurement": "Ischaemia-induced learning impairment, % reversal of learning impairment", "setting": "[1]; 1.00 mg/kg ip", "result": 51, "unit": "%"},
      {"measurement": "ED50", "setting": "[1]", "result": 1, "unit": "mg/kg"}
    ]},
    {"smiles": "NC(=O)C(NCC(=O)O)c1cccs1", "note": "(stereo not shown) [Example 8, 2-Thienyl-N-hydroxycarbonylmethylaminoacetamide hydrochloride]", "values": [
      {"measurement": "Scopolamine amnesia, % reversal of amnesia", "setting": "[2]", "result": 71, "unit": "%"},
      {"measurement": "Ischaemia-induced learning impairment, % reversal of learning impairment", "setting": "[1]; 0.03 mg/kg ip", "result": 58, "unit": "%"},
      {"measurement": "ED50", "setting": "[1]", "result": 0.03, "unit": "mg/kg"}
    ]}
  ]
}
